Tests used:
No. 04 Coronavirus [1] = test: organism not typed; type: cell-based
Method: HELA cells were seeded on 96-well cultivation plates at the concentration of 400,000/ml and grown to monolayer at 37° C. in 5% CO2 incubator for 24 hours. […] Then 100 TCID50coronavirus liquid were added to HELA cells. At the same time reference cell and reference virous were cultivated at 37° C. in 5% CO2 incubator for 5 to 7 days. At the same time normal cell reference and virous reference were cultivated at 37° C. in 5% CO2 incubator for 5 to 7 days. Inverted microscope was used everyday to observe the cytopathic effect (CPE) of virus. The determination were ended according to the appearance of “+++-++++”. […] The determination was repeated three times.

HELA cell = test: Toxicity to HELA cell (CPE, Reed-Muench)
Method: 1. Determination of the Toxicity of Recombinant Human Lysozyme to HELA Cell:
HELA cells were seeded on 96-well culture plates at the concentration of 400,000/mi and grown at 37° C. in a 5% CO2 incubator for 2 hours. 100 μl recombinant human lysozyme which were double-diluted from 6000 ug/ml to 11.7 ug/ml and positive reference medicine which were double-diluted from 6000 ug/ml to 11.7 ug/ml were respectively added to 3 wells per concentration. At the same time the reference cells were cultivated at 37° C. in a 5% CO2 incubator for 6 days. Inverted microscope was used everyday to observe the cytopathic effect (CPE). The cytopathic effect under 25% was recorded as “+”, the cytopathic effect under 26%˜50% was recorded as “++”, the cytopathic effect under 51%˜75% was recorded as “+++” and the cytopathic effect under 76%˜100% was recorded as “++++”. Drug median toxic dose (TD50) and minimum toxic dose (TD0) were calculated by using Reed-Muench method.

[2] = tested on: bronchus pneumonia of mice by sucking the hydrochloric acid; test: Bronchus pneumonia (bronchus lung injury) of mice by sucking atomized hydrochloric acid; type: in vivo, Kunming mice
Method: D. The effect of human lysozyme to bronchus pneumonia of mice by sucking the hydrochloric acid:
50 mice were equally divided to 5 groups at random, selecting randomly 4 groups among them to make the model of the mice atomized hydrochloric acid.
Each batch of 10 mice was put in Glass desiccator which equipped the self-made atomizer contained 1 N HCI solution. The principle of electronic supra-frequency shaker was used to atomizate hydrochloric acid, then it was inspired for 1 hour by mice to make model of inspiring bronchus lung injury. Its mechanism is that inspiring acidoid can cause adhesion of leucocyte and increasing expression of ICAM-1 and permeability of endotheliocyte and cellula epithelialis to protein, thereby to cause pneumochysis. Otherwise inspiring acidoid can cause the release of phlegmonosis cytokine. Assembling in lung and reciprocal activation of these cytokine and neutrophilic leukocyte can induce cell adhesion and tissue damage.
40 mice models were gathered and then randomly divided to 4 groups. 3 groups were treated with drug, 1 group were treated as model group.
The concentration of recombinant human lysozyme medicine was set at 15000 u/ml in clinical atomization therapy. The dose was 15000 u per time once daily, I.e 0.5 mg per time. The dose was 1.3×10^−3mg a mice (calculated by weight of 20 g). Human ventilatory capacity (9000 ml/min) corresponded with 375 times of mice ventilatory capacity (24 ml/min). Human single dose (0.5 mg/70 kg) corresponded with 384 times of mice dose (1.3×10^−3 mg/20 g). Two folds between ventilatory capacity and single dose were closed, so clinical human dose was used for atomization therapy of mice. Availability of clinical inspiring lysozyme atomized was higher than breathing amount of mice by itself in atomizer. To ensure the breathing amount of lysozyme, the breathing time were extended for 1 hour. Based on 0.5 mg/ml as low dose, the concentration of 1.0 mg/ml and 2.0 mg/ml were set respectively as middle and high dose. The mice were put into the glass desiccator and then treated with human lysozyme atomized in the compression sprayer (PARL.BOY) once daily, and continued 5-10 days (shown in FIG. 2).
As atomization was treated to the 5th and 10th day, half animals (5) of every group were dissected, then the lung tissues were weighed and the lung coefficients were calculated according to the weight. Pathological changes of appearance and the lung tissue were observed respectively by naked eye and pathological section.

[3] = tested on: drug-resistant suppurative streptococcus; test: Amygdalitis model of mice, upper respiratory tract infection; type: in vivo
Excerpt: C. The preparation of the amygdalitis model of mice infected by the drug-resistant suppurative streptococcus with the upper respiratory tract:
10 healthy Kunming mice (18˜22 g), male and female, infected by the drug-resistant suppurative streptococcus with the upper respiratory tract in way of spraying which induce the amygdalitis of mice, then promptly suck aerosol (powder or liquid) according to 30000 u/ml/20 g and give medicines three times a day. Observe for one week after infecting and record the efficient rate of mice. […]

No. 04 Coronavirus [4] = test: Inhibition on No. 04 Coronavirus in HELA cells (CPE method); type: cell-based
Method: HELA cells were seeded on 96-well cultivation plates at the concentration of 400,000/ml and grown to monolayer at 37° C. in 5% CO2 incubator for 24 hours. After removal of cultivation liquid, coronavirus liquid were added to HELA cells and absorbed at 37° C. in 5% CO2 incubator for 2 hours. […] At the same time reference cells and reference virous were cultivated at 37° C. in 5% CO2 incubator for 5 to 7 days. Inverted microscope was used everyday to observe the cytopathic effect (CPE) of virus. The determination were ended according to the appearance of “+++-++++”. […] The determination was repeated three times.

[5] = tested on: drug-resistant suppurative streptococcus; test: Acute or chronic suppurative faucitis model of mice, upper respiratory tract infection; type: in vivo
Excerpt: B. Preparation of the acute or chronic suppurative faucitis model of little mice infected by the drug-resistant suppurative streptococcus with the upper respiratory tract:
10 healthy Kunming mice (18˜22 g), male and female, were infected by the drug-resistant suppurative streptococcus with the upper respiratory tract in way of spraying which induced the acute or chronic suppurative faucitis of mice, and then promptly treated with aerosol (powder or liquid) at the dose of 30000 u/ml/20 g and give medicines three times a day. Observe for one week after infecting and record the efficient rate of mice. […]

[6] = prevention: drug absorbed 2.5 hours before 100 TCID50 virus, mean of thrice test
[7] = high dosage 2.0 mg/ml, atomization treated for 5 days
[8] = high dosage 2.0 mg/ml, atomization treated for 10 days
[9] = low dosage 0.5 mg/ml, atomization treated for 5 days
[10] = low dosage 0.5 mg/ml, atomization treated for 10 days
[11] = median dosage 1.0 mg/ml, atomization treated for 5 days
[12] = median dosage 1.0 mg/ml, atomization treated for 10 days
[13] = 10 mice, aerosol 30000 u/ml/20 g three times a day, one week
[14] = atomized solution and inhalation
[15] = inhibition: drug added after virus absorbed 2 hours, mean of thrice test

## Human lysozyme: gene recombinant Human Lysozyme (HLZ), active unit 30000 u/mg, batch number 020110; given atomized / as aerosol
No. 04 Coronavirus [1]; [6]
  median inhibitory concentration (IC50): 5.9 ± 0 µg/mL
  minimum inhibitory concentration (MIC): 11.7 ± 0 µg/mL
No. 04 Coronavirus [1]; prevention: drug before virus
  therapeutic index (TI): 64
HELA cell
  median toxic dose (TD50): 1500 ± 0 µg/mL
  minimum toxic dose (TD0): 750 ± 0 µg/mL
[2]; atomization
  effect on mice model of bronchus lung injury caused by inspiring hydrochloric acid: validated effective
[2]; [7]
  Lung coefficient (g/g) × 10^−3: 9.1 ± 1.00 (g/g) × 10^−3
  Weight: 29.4 ± 3.3 g
[2]; [8]
  Lung coefficient (g/g) × 10^−3: 8.32 ± 1.84 (g/g) × 10^−3
  Weight: 31.2 ± 2.0 g
[2]; high dosage group, 5 days
  pathohistology observation of bronchiole and bronchia in lung: little infiltration of a few monocytes and lymphocytes in bronchus between lobules, and a few phlegmasia cells and secretion in part bronchioles
  pathological section: animals changed pathologically: 2/5
  pathological section: animals normal: 3/5
[2]; [9]
  Lung coefficient (g/g) × 10^−3: 7.30 ± 0.43 (g/g) × 10^−3
  Weight: 29.6 ± 1.6 g
[2]; [10]
  Lung coefficient (g/g) × 10^−3: 7.10 ± 0.61 (g/g) × 10^−3
  Weight: 30.7 ± 3.0 g
[2]; low dosage group, 5 days
  pathohistology observation of bronchiole and bronchia in lung: two spalling of epithelium mucosae in bronchioles and bronchia of one lung tissue, a little erythrocytes in bronchiole lumina of another lung tissue, and normality in the others
  pathological section: animals kept normally: 4/5
[2]; [11]
  Lung coefficient (g/g) × 10^−3: 7.8 ± 0.65 (g/g) × 10^−3
  Weight: 29.2 ± 2.4 g
[2]; [12]
  Lung coefficient (g/g) × 10^−3: 8.30 ± 1.40 (g/g) × 10^−3
  Weight: 30.6 ± 2.2 g
[2]; median dosage group, 5 days
  pathohistology observation of bronchiole and bronchia in lung: little infiltration of a few monocytes and lymphocytes around part bronchioles, intactness of upper strata wall of most bronchioles tunica mucosa, spalling of a few epithelium mucosae
  pathological section: animals kept normally: 5/5
[3]; [13]
  Efficient %: 100%
  Healing: 8
  Invalid: 0
  Valid: 2
[3]; [14]
  curative effect to the amygdalitis of mice: obvious curative effect
No. 04 Coronavirus [4]; inhibition: drug added after virus
  therapeutic index (TI): 16
No. 04 Coronavirus [4]; [15]
  median inhibitory concentration (IC50): 23.4 ± 0 µg/mL
  minimum inhibitory concentration (MIC): 46.8 ± 0 µg/mL
[5]; [13]
  Efficient %: 100%
  Healing: 8
  Invalid: 0
  Valid: 2
[5]; [14]
  curative effect to acute or chronic suppurative faucitis of mice: obvious curative effect
